Results on 2 molecules are retold here after patent US20050020580A1, “Materials and methods for the prevention or treatment of apoptosis and apoptosis-related diseases and conditions” (priority 2002, published 2005).

Molecules are shown by their SMILES. Read-outs that look alike come from different tables or passages of the source.

Data set [1] in a line: Mouse pharmacokinetic studies: plasma drug concentrations by LC/MS/MS. In kind it is in vivo, mice (BALB/C). The note with it: oral. Here is the method:
Administration of PI for Experimental Protocols: Six to eight-week-old BALB/C mice (Jackson Labs, Bar Harbor, Me.) were acclimatized for one week before receiving either control vehicle or PI by gavage. PIs were prepared by dissolving 1% weight per volume carboxymethylcellulose and 15 mg/mL Nelfinavir (NFV) oral powder (commercial preparation, Agouron Laboratories, La Jolla, Calif.) in 2% ethanol in distilled water. […] The PI mixture was administered every 8 hours for the indicated number of doses and mice were either sacrificed for pharmacokinetic studies or treated as described. Histopathology was performed by a consulting veterinary pathologist who was blinded as to the nature of experimental treatments.
Immediately preceding the fourth dose and every two hours post gavage until hour 8, plasma drug concentrations were assayed. At both doses, NFV was undetectable (i.e. <2.5 ng/mL) 6 hours after dosing.
Drug levels were assessed in two mice each for several time-points. NFV levels were 8172 and 8914 ng/mL at 1 hour, 5999 and 6006 ng/mL at 2 hours, 5559 and 6048 ng/mL at 3 hours, and 4005 to 4217 ng/mL at 4 hours post-dosing.

Data set [2] is described as follows: NFV and RIT concentrations in brain tissues of mice given NFV/RIT suspension. Conditions: 3 doses of NFV/RIT suspension, whole brain removed immediately preceding the fourth dose, two mice; for concentration at 8 h: C57BL/6, mouse, brain, oral. In kind it is in vivo. Here is the method:
Supernatants were then analyzed as described herein for drug level determination. […] Given the significant drug levels achieved in the brains of these mice, the effects of PI in a mouse model of stroke could be examined.

The next data set relates to Eschericheria coli. Kind of data set: Minimal inhibitory concentration (MIC), NCCLS guidelines. The data set is classed as cell-based. The note with it: five clinical isolates.
The test system of data set [3] is Jurkat T cells. The data set can be described thus: Fas signaling in Jurkat T cells stimulated with CH-11 anti-Fas antibody. In kind it is cell-based. The source says:
Annexin-V and Propidium Iodide Staining. […] Western Blot Analysis. […] Fluorometric Caspase 8 and 3 Activity.

The next data set has as its system hepatocytes. The data set can be described thus: Fas signaling ex vivo in hepatocytes from mice challenged with IV Jo-2. Conditions: hepatocytes from pretreated mice. Here is the method: Hepatocyte isolation: Four hours after treatment with 7.5 μg of Jo-2 antibody, mice were euthanized with pentobarbital (60 mg/kg, Abbott), and hepatocytes isolated via a two-step collagenase digestion (Seglen, P. O. Methods Cell Biol 13, 29-83, 1976). Following red cell lysis, hepatocytes were enumerated and evaluated for loss of ΔΨm, and caspase 8 and 3 activity. Fluorometric Caspase 8 and 3 Activity.

A further data set concerns wild type yeast. The data set can be described thus: Yeast clonogenic assay of apoptosis (Vpr peptide or H2O2). The data set is classed as cell-based, Saccharomyces cerevisiae. The note with it: varying doses.
For the next data set, the system named is PTPC. Kind of data set: PTPC proteoliposomes, 4-MUP fluorescence release. In kind it is biochemical, rat. The note with it: increasing doses of NFV. As for the experimental part:
Liposome technology: PTPC (1 mg/ml) was separated from rat brains and ANT (0.1 mg/ml) from rat heart mitochondria as previously described (Brenner, C. et al. Methods Enzymol 322, 243-52, 2000; Marzo, I. et al. Biomed Pharmacother 52, 248-51, 1998). Immediately after purification, pure proteins were reconstituted into proteoliposomes (phosphatidylcholin/cholesterol [5:1;w:w] for PTPC and phosphatidylcholin/cardiolipin [45:1; w:w] for ANT) (Belzacq, A. S. et al. Cancer Res 63, 541-6, 2003). […] S. et al. Cancer Res 63, 541-6, 2003). 25 μl of proteoliposomes were incubated with the indicated agents (30 min for NFV and 60 min for ATR and Vpr52-96 at RT). […] The release of 4-MU was measured by spectrofluorimetry (excitation wave length 360 nm; emission wave length 450 nm). The maximum 4-MUP release was determined by adding 5% Triton X-100 to proteoliposomes. The percentage of 4-MUP release induced by treatment of liposomes by ATR was determined as [(ATR−treated liposomes fluorescence−untreated liposomes fluorescence)/(TX-100-treated liposomes fluorescence−untreated liposomes fluorescence)]×100. The maximal fluorescence induced by 800 μM ATR was then identified as 100% 4-MUP release and the fluorescence induced by the treatment of liposomes by another product or another dose was calculated as a percentage of ATR-induced 4-MUP release.

Another data set addresses T1, ANT (Rattus norvegicus, UniProt Q05962).
T1 construct: ANT (0.1 mg/ml) from rat heart mitochondria; from tissue; host or cells: rat heart mitochondria
T1 sequence (Q05962 1-298): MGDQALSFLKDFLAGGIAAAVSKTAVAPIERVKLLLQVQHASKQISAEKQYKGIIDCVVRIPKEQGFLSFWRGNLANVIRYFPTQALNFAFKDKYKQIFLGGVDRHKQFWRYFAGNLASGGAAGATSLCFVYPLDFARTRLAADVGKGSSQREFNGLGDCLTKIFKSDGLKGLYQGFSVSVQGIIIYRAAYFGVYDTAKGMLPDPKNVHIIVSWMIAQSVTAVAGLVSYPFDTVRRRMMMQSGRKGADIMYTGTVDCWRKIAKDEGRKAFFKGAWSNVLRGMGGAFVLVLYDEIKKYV
Kind of data set: ANT proteoliposomes, 4-MUP fluorescence release. Conditions: p<0.05. The data set is classed as biochemical. As for the experimental part:
Liposome technology: PTPC (1 mg/ml) was separated from rat brains and ANT (0.1 mg/ml) from rat heart mitochondria as previously described (Brenner, C. et al. Methods Enzymol 322, 243-52, 2000; Marzo, I. et al. Biomed Pharmacother 52, 248-51, 1998). Immediately after purification, pure proteins were reconstituted into proteoliposomes (phosphatidylcholin/cholesterol [5:1;w:w] for PTPC and phosphatidylcholin/cardiolipin [45:1; w:w] for ANT) (Belzacq, A. S. et al. Cancer Res 63, 541-6, 2003). […] The release of 4-MU was measured by spectrofluorimetry (excitation wave length 360 nm; emission wave length 450 nm). The maximum 4-MUP release was determined by adding 5% Triton X-100 to proteoliposomes. The percentage of 4-MUP release induced by treatment of liposomes by ATR was determined as [(ATR−treated liposomes fluorescence−untreated liposomes fluorescence)/(TX-100-treated liposomes fluorescence−untreated liposomes fluorescence)]×100. The maximal fluorescence induced by 800 μM ATR was then identified as 100% 4-MUP release and the fluorescence induced by the treatment of liposomes by another product or another dose was calculated as a percentage of ATR-induced 4-MUP release.

A further data set has as its system RAW264.7 cells. The data set is classed as cell-based, mouse.
The conditions of data set [4]: co-administration of RIT with NFV in human subjects (Raines et al.); cited from earlier work.
The next data set deals with Pseudomonas aeruginosa. The data set can be described thus: Minimal inhibitory concentration (MIC), NCCLS guidelines.
The next data set deals with Enterococcus. The description is as above.
For the next data set, the system named is Streptococcus bovis. The description is as above. The note with it: Streptococcus equinus.
Data set [5] has as its system Jurkat T cells. Kind of data set: Apoptosis by selective PTPC agonists (ATR, STS, PK11195) in Jurkat T cells.

In the case of `Cc1c(O)cccc1C(=O)N[C@@H](CSc1ccccc1)[C@H](O)CN1C[C@H]2CCCC[C@H]2C[C@H]1C(=O)NC(C)(C)C` [NFV, nelfinavir], in data set [1] (BALB/C, NFV alone, 125 mg/kg or 250 mg/kg every 8 hours by gavage, BALB/C mice, read-out: NFV plasma drug concentration 6 hours after dosing), the concentration at 6 h is under 2.5 ng/mL. In addition, the Cmax in [1] (pharmacokinetic studies in mice (data not shown)) was about 8 µM. The “Levels of NFV in brain tissue” value in data set [2] is recorded as 986 μg/gm of brain tissue. The concentration at 8 h in data set [2] (read-out: Levels of NFV in brain tissue) was determined as 682000 ng/g. The MIC with Eschericheria coli, in the data set on Pseudomonas aeruginosa, against Enterococcus and against Streptococcus bovis was over 10 µM each time. The “Procaspase 8 cleavage and activity, and Bid cleavage vs vehicle control cells” value in the data set with Jurkat T cells [3] (NFV pretreated, CH-11) is given as “similar”. Further, the “ΔΨm (loss of DiOC6 retention), cytochrome c release, caspase 9, and caspase 3 cleavage and activity” value in the data set with Jurkat T cells [3] (NFV pretreatment, CH-11) is listed as “reduced”. In addition, the “Apoptosis (Annexin positivity) after CH-11 anti-CD95 antibody” value in the data set on Jurkat T cells [3] (NFV pretreatment, varying concentrations) is on record as “dose-dependent reduction in apoptosis”. Besides, the ΔΨm loss entry in the data set on hepatocytes is listed as “inhibited”. The “Apoptosis induced by H2O2 (viability)” value in the data set on wild type yeast is “inhibited in a dose responsive manner”. For the same molecule, the “Apoptosis induced by Vpr (viability)” value in the data set with wild type yeast is recorded as “inhibited in a dose responsive manner”. The “ATR induced fluorescence release from PTPC liposomes” value in the data set on PTPC was “progressively inhibited”. In addition, the “ATR induced release of fluorescence from ANT liposomes” value at ANT is “inhibited”. For the same molecule, the “Vpr induced release of fluorescence from ANT liposomes” value on ANT is on record as “inhibited”. Moreover, in the data set with RAW264.7 cells, the “Apoptosis induced by PA and LT” value was “significantly inhibited in a dose responsive manner”. The “Levels of NFV compared to NFV alone” value in data set [4] is “significantly increased”. In addition, the “PK11195 induced apoptosis, ΔΨm, cytochrome c release, caspase 9, caspase 3 and PARP cleavage” value in the data set with Jurkat T cells [5] (PBR agonist PK11195, NFV pretreated) is “not altered”. Moreover, in the data set on Jurkat T cells [5] (VDAC agonist STS, NFV pretreated), the “STS induced apoptosis, ΔΨm, cytochrome c release, caspase 9, caspase 3 and PARP cleavage” value is on record as “not altered”.
As for `CC(C)c1nc(CN(C)C(=O)N[C@H](C(=O)N[C@@H](Cc2ccccc2)C[C@H](O)[C@H](Cc2ccccc2)NC(=O)OCc2cncs2)C(C)C)cs1` [RIT, ritonavir], the “RIT levels in brain tissue” value in data set [2] was 32 μg/gm of brain tissue. Also, in data set [2] (RIT levels in brain tissue), the concentration at 8 h worked out at 38000 ng/g.

As usually defined, the Cmax is the peak of the concentration-time curve. Usually MIC stands for the least concentration at which growth counts as inhibited.
